One assay has as its target T1, NasbB (Streptomyces sp., UniProt A0A7T3QX21).
T1 construct: codon-optimised gene in pMS1, Mycobacterium smegmatis mc2 155
T1 sequence (A0A7T3QX21 1-422): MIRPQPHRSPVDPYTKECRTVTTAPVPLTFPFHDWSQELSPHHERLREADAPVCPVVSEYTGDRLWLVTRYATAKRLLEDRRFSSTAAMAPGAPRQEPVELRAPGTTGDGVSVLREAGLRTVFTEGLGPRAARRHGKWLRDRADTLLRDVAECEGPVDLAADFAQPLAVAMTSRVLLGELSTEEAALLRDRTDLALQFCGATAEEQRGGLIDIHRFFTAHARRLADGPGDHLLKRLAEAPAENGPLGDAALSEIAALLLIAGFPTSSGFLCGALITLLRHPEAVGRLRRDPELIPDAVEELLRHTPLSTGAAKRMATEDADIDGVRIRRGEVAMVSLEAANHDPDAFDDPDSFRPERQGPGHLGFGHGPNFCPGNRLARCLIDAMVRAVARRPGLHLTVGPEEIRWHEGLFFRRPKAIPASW
Type of assay: biochemical. The following applies: […] substrate, […] P450, spinach Fd/FdR, NADPH recycling, pH […] °C, […] h; product NAS-B.

The target of assay [1] is T2, NasF5053 (NascF5053) (Streptomyces sp. NRRL F-5053, UniProt A0A8I3B027).
T2 construct: codon-optimised gene in pET28a, E. coli BL21(DE3); heme protein
T2 sequence (A0A8I3B027 entry or part of it): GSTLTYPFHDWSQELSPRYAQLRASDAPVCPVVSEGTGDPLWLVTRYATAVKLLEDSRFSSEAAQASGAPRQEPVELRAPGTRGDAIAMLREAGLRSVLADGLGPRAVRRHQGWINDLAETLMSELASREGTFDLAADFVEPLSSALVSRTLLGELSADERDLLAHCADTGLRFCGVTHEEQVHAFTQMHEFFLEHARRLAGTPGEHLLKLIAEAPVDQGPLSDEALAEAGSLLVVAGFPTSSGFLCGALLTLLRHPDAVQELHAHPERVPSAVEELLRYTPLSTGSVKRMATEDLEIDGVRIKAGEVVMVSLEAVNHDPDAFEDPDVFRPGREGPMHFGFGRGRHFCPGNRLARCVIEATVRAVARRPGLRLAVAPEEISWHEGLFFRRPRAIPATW
Description: UV-Vis difference spectra, Soret shift, hyperbolic fit. The following applies: read-out: binding constant.

For assay [2], the target named is T3, NasF5053 (NascF5053) (Streptomyces sp. NRRL F-5053, UniProt A0A8I3B027, A86G/Q65I).
T3 construct: codon-optimised gene in pET28a, E. coli BL21(DE3); heme protein
T3 sequence (A0A8I3B027 1-398 Q65I/A86G): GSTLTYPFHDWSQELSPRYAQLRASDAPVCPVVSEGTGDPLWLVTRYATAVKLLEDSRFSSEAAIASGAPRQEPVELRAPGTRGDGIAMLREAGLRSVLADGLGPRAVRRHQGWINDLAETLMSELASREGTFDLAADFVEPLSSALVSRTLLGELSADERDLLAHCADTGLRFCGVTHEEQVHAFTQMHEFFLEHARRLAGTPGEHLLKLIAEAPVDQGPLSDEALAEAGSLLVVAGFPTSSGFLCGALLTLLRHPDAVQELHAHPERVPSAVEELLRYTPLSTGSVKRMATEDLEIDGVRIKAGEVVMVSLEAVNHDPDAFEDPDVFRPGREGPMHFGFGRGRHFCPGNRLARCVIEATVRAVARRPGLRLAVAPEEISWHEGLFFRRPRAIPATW
The description is as above. The following applies: read-out: binding constant.

The target in assay [3] is T4, NasF5053 (NascF5053) (Streptomyces sp. NRRL F-5053, UniProt A0A8I3B027, S284A/V288A).
T4 construct: codon-optimised gene in pET28a, E. coli BL21(DE3); heme protein
T4 sequence (A0A8I3B027 1-398 S284A/V288A): T3 sequence (A0A8I3B027 1-398 Q65I/A86G) with I65Q, G86A, S284A, V288A
The assay is described as above. The conditions noted are these: read-out: binding constant.

The next assay deals with T5, NasS1868 (Streptomyces sp. NRRL S-1868, UniProt A0ACD6BAV5).
T5 construct: codon-optimised gene in pMS1, Mycobacterium smegmatis mc2 155
T5 sequence (A0ACD6BAV5 1-401): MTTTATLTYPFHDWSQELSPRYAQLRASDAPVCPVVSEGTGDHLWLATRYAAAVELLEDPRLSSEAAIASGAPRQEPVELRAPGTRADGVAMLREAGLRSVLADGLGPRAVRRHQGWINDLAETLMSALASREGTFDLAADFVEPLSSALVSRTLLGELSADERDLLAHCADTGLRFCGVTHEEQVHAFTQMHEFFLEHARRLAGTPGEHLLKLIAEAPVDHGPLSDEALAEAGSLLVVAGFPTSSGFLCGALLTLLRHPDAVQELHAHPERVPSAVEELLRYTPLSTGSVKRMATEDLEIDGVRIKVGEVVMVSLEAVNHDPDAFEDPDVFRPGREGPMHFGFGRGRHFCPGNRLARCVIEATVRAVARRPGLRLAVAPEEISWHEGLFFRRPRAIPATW
The experiment in a line: product formation by UHPLC-MS. Type of assay: biochemical. The conditions noted are these: 1 mM substrate, 0.1 µM P450, spinach Fd/FdR, NADPH recycling, pH 7.5, 4 °C, 24 h; product aspergilazine A.

Substitutions are numbered along the chain they refer to.

Take `O=C1N[C@@H](Cc2c[nH]c3ccccc23)C(=O)N2CCC[C@@H]12` [cWL-PL]: the results for the “product formation by UHPLC-MS” value at NasbB and on NasS1868 were “NasbB was confirmed to efficiently dimerize the cWL-PL into NAS-B” and “NasS1868 can convert cWL-PL into Asp-A”, respectively. The Kd turned out to be 11.6 ± 2.1 µM on NasF5053 (NascF5053) [1], 25.6 ± 1 µM at NasF5053 (NascF5053) [2] and 4.81 ± 0.26 µM at NasF5053 (NascF5053) [3].
